In patent publication US10765114B2, “4-amino-6-(pyridyl and 2-substitutedphenyl)-picolinates and 6-amino-2-(pyridyl and 2-substitutedphenyl)-pyrimidine-4-carboxylates and their use as herbicides” (Dow AgroSciences LLC, priority 2013, dated 2020):

Tested on: Key Broadleaf Weed and Crop Species
Assay: Post-Emergent Test II (Table 5)
Type: in vivo
Conditions: Abutilon theophrasti, post-emergence, 336 h, ABUTH: velvetleaf (Abutilon theophrasti), application rate 70 (kg ai/ha; footnote: g ai/ha), read-out: Visual Growth Reduction (%) 14 Days After Application ABUTH
Method in brief: (§1)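 Growth stage at treatment: first or second true leaf. Application: compound in acetone/DMSO diluted into an adjuvant-containing aqueous mix, sprayed at 187 L/ha at several rates. Assessment: visual 0-100% injury at 14 days against untreated plants.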

| Structure (SMILES) | pest or weed control at 70 g/ha [%] |
| --- | --- |
| COC(=O)c1nc(-c2ccc(Cl)c(F)c2C(=O)O)cc(N)c1Cl [Compound 91, 6-(4-amino-5-chloro-6-(methoxycarbonyl)pyridin-2-yl)-3-chloro-2-fluorobenzoic acid] | 0 to 29 |

Same assay, conditions: Abutilon theophrasti, post-emergence, 336 h, ABUTH: velvetleaf (Abutilon theophrasti), application rate 140 (kg ai/ha; footnote: g ai/ha), read-out: Visual Growth Reduction (%) 14 Days After Application ABUTH

| Structure (SMILES) | pest or weed control at 140 g/ha [%] |
| --- | --- |
| COC(=O)c1nc(-c2ccc(Cl)c(F)c2C(=O)O)cc(N)c1Cl [Compound 91, 6-(4-amino-5-chloro-6-(methoxycarbonyl)pyridin-2-yl)-3-chloro-2-fluorobenzoic acid] | 0 to 29 |

Same assay, conditions: Amaranthus retroflexus, post-emergence, 336 h, AMARE: redroot pigweed (Amaranthus retroflexus), application rate 70 (kg ai/ha; footnote: g ai/ha), read-out: Visual Growth Reduction (%) 14 Days After Application AMARE

| Structure (SMILES) | pest or weed control at 70 g/ha [%] |
| --- | --- |
| COC(=O)c1nc(-c2ccc(Cl)c(F)c2C(=O)O)cc(N)c1Cl [Compound 91, 6-(4-amino-5-chloro-6-(methoxycarbonyl)pyridin-2-yl)-3-chloro-2-fluorobenzoic acid] | 0 to 29 |

Same assay, conditions: Amaranthus retroflexus, post-emergence, 336 h, AMARE: redroot pigweed (Amaranthus retroflexus), application rate 140 (kg ai/ha; footnote: g ai/ha), read-out: Visual Growth Reduction (%) 14 Days After Application AMARE

| Structure (SMILES) | pest or weed control at 140 g/ha [%] |
| --- | --- |
| COC(=O)c1nc(-c2ccc(Cl)c(F)c2C(=O)O)cc(N)c1Cl [Compound 91, 6-(4-amino-5-chloro-6-(methoxycarbonyl)pyridin-2-yl)-3-chloro-2-fluorobenzoic acid] | 0 to 29 |

Same assay, conditions: Brassica napus, post-emergence, 336 h, BRSSS: oilseed rape, canola (Brassica napus), application rate 70 (kg ai/ha; footnote: g ai/ha), read-out: Visual Growth Reduction (%) 14 Days After Application BRSSS

| Structure (SMILES) | pest or weed control at 70 g/ha [%] |
| --- | --- |
| COC(=O)c1nc(-c2ccc(Cl)c(F)c2C(=O)O)cc(N)c1Cl [Compound 91, 6-(4-amino-5-chloro-6-(methoxycarbonyl)pyridin-2-yl)-3-chloro-2-fluorobenzoic acid] | 0 to 29 |

Same assay, conditions: Brassica napus, post-emergence, 336 h, BRSSS: oilseed rape, canola (Brassica napus), application rate 140 (kg ai/ha; footnote: g ai/ha), read-out: Visual Growth Reduction (%) 14 Days After Application BRSSS

| Structure (SMILES) | pest or weed control at 140 g/ha [%] |
| --- | --- |
| COC(=O)c1nc(-c2ccc(Cl)c(F)c2C(=O)O)cc(N)c1Cl [Compound 91, 6-(4-amino-5-chloro-6-(methoxycarbonyl)pyridin-2-yl)-3-chloro-2-fluorobenzoic acid] | 0 to 29 |

Same assay, conditions: Chenopodium album, post-emergence, 336 h, CHEAL: lambsquarters (Chenopodium album), application rate 70 (kg ai/ha; footnote: g ai/ha), read-out: Visual Growth Reduction (%) 14 Days After Application CHEAL

| Structure (SMILES) | pest or weed control at 70 g/ha [%] |
| --- | --- |
| COC(=O)c1nc(-c2ccc(Cl)c(F)c2C(=O)O)cc(N)c1Cl [Compound 91, 6-(4-amino-5-chloro-6-(methoxycarbonyl)pyridin-2-yl)-3-chloro-2-fluorobenzoic acid] | 0 to 29 |

Same assay, conditions: Chenopodium album, post-emergence, 336 h, CHEAL: lambsquarters (Chenopodium album), application rate 140 (kg ai/ha; footnote: g ai/ha), read-out: Visual Growth Reduction (%) 14 Days After Application CHEAL

| Structure (SMILES) | pest or weed control at 140 g/ha [%] |
| --- | --- |
| COC(=O)c1nc(-c2ccc(Cl)c(F)c2C(=O)O)cc(N)c1Cl [Compound 91, 6-(4-amino-5-chloro-6-(methoxycarbonyl)pyridin-2-yl)-3-chloro-2-fluorobenzoic acid] | 0 to 29 |

Same assay, conditions: Euphorbia heterophylla, post-emergence, 336 h, EPHHL: wild poinsettia (Euphorbia heterophylla), application rate 70 (kg ai/ha; footnote: g ai/ha), read-out: Visual Growth Reduction (%) 14 Days After Application EPHHL

| Structure (SMILES) | pest or weed control at 70 g/ha [%] |
| --- | --- |
| COC(=O)c1nc(-c2ccc(Cl)c(F)c2C(=O)O)cc(N)c1Cl [Compound 91, 6-(4-amino-5-chloro-6-(methoxycarbonyl)pyridin-2-yl)-3-chloro-2-fluorobenzoic acid] | 0 to 29 |

Same assay, conditions: Euphorbia heterophylla, post-emergence, 336 h, EPHHL: wild poinsettia (Euphorbia heterophylla), application rate 140 (kg ai/ha; footnote: g ai/ha), read-out: Visual Growth Reduction (%) 14 Days After Application EPHHL

| Structure (SMILES) | pest or weed control at 140 g/ha [%] |
| --- | --- |
| COC(=O)c1nc(-c2ccc(Cl)c(F)c2C(=O)O)cc(N)c1Cl [Compound 91, 6-(4-amino-5-chloro-6-(methoxycarbonyl)pyridin-2-yl)-3-chloro-2-fluorobenzoic acid] | 0 to 29 |

Same assay, conditions: Helianthus annuus, post-emergence, 336 h, HELAN: sunflower (Helianthus annuus), application rate 70 (kg ai/ha; footnote: g ai/ha), read-out: Visual Growth Reduction (%) 14 Days After Application HELAN

| Structure (SMILES) | pest or weed control at 70 g/ha [%] |
| --- | --- |
| COC(=O)c1nc(-c2ccc(Cl)c(F)c2C(=O)O)cc(N)c1Cl [Compound 91, 6-(4-amino-5-chloro-6-(methoxycarbonyl)pyridin-2-yl)-3-chloro-2-fluorobenzoic acid] | 0 to 29 |

Same assay, conditions: Helianthus annuus, post-emergence, 336 h, HELAN: sunflower (Helianthus annuus), application rate 140 (kg ai/ha; footnote: g ai/ha), read-out: Visual Growth Reduction (%) 14 Days After Application HELAN

| Structure (SMILES) | pest or weed control at 140 g/ha [%] |
| --- | --- |
| COC(=O)c1nc(-c2ccc(Cl)c(F)c2C(=O)O)cc(N)c1Cl [Compound 91, 6-(4-amino-5-chloro-6-(methoxycarbonyl)pyridin-2-yl)-3-chloro-2-fluorobenzoic acid] | 0 to 29 |

Same assay, conditions: Viola tricolor, post-emergence, 336 h, VIOTR: wild pansy (Viola tricolor), application rate 70 (kg ai/ha; footnote: g ai/ha), read-out: Visual Growth Reduction (%) 14 Days After Application VIOTR

| Structure (SMILES) | pest or weed control at 70 g/ha [%] |
| --- | --- |
| COC(=O)c1nc(-c2ccc(Cl)c(F)c2C(=O)O)cc(N)c1Cl [Compound 91, 6-(4-amino-5-chloro-6-(methoxycarbonyl)pyridin-2-yl)-3-chloro-2-fluorobenzoic acid] | 0 to 29 |

Same assay, conditions: Viola tricolor, post-emergence, 336 h, VIOTR: wild pansy (Viola tricolor), application rate 140 (kg ai/ha; footnote: g ai/ha), read-out: Visual Growth Reduction (%) 14 Days After Application VIOTR

| Structure (SMILES) | pest or weed control at 140 g/ha [%] |
| --- | --- |
| COC(=O)c1nc(-c2ccc(Cl)c(F)c2C(=O)O)cc(N)c1Cl [Compound 91, 6-(4-amino-5-chloro-6-(methoxycarbonyl)pyridin-2-yl)-3-chloro-2-fluorobenzoic acid] | 0 to 29 |

Tested on: Key Grass and Sedge Weeds as well as Grass Crops
Assay: Post-Emergent Test II (Table 6)
Type: in vivo
Conditions: post-emergence, 336 h, CYPSS, 70 g ai/ha, 14 days after application, read-out: Visual Growth Reduction (%) 14 Days After Application CYPSS
Method in brief: as §1

| Structure (SMILES) | pest or weed control at 70 g/ha [%] |
| --- | --- |
| COC(=O)c1nc(-c2ccc(Cl)c(F)c2C(=O)O)cc(N)c1Cl [Compound 91, 6-(4-amino-5-chloro-6-(methoxycarbonyl)pyridin-2-yl)-3-chloro-2-fluorobenzoic acid] | 0 to 29 |
